As a reminder, the EC50 is the concentration giving half of the maximal effect.

This note sets out measurements from patent EP4786454A1, “HETEROARYL DERIVATIVE AND USE THEREOF” (priority 2023, dated 2025).

For data set [1], the target named is T1, hKCNQ2/3 (Homo sapiens, UniProt O43525+O43526).
T1 construct: expressed in transfected cells; host or cells: CHO
Description: hKCNQ2/3 thallium flux assay (FLIPR). Type of data set: cell-based. The following applies: agonistic effect, CHO cell line stably expressing hKCNQ2/3. The text has this:
The present disclosure also provides the following assay methods: • Assay method 1: hKCNQ2/3 thallium flux assay • Purpose of the assay: To determine the in vitro concentration-response relationship of the compounds in a CHO cell line stably expressing hKCNQ2/3 using FLIPR thallium flux assay.
CHO cells stably transfected with hKCNQ2/3.
The cell line was passaged three times a week at a split ratio of 1:2 to 1:3. When the cells grew to a confluence degree of greater than 80% in a T-75 cell flask, they were digested with 0.25% trypsin-EDTA solution for about 1 minute, and then the cells were transferred from the cell flask for passage. According to the split ratio, the cells were transferred to another T-75 cell flask containing complete cell growth culture medium. Note: In order to maintain the logarithmic growth of cells, the cell growth should be maintained in a subconfluent monolayer state. The cells were passaged every 2 to 3 days according to the cell doubling time.
• (1) Day 1, cell preparation: The cells were digested according to the above method, and the cell density and viability were determined using Cell Countess. The volume of the single-cell suspension was adjusted with complete cell growth culture medium. Then, the hKCNQ2/3_CHO cells were seeded at a density of approximately 20,000 cells/well (30 µL/well) into a PDL-precoated 384-well plate. Then, the plate was incubated at 37 °C with 5% CO2 humidified air in an incubator overnight. • (2) Day 2, compound preparation: A test compound was diluted to a storage concentration with dimethyl sulfoxide (DMSO), and stored in a freezer at -20 °C. A compound addition program was set up on the ECHO liquid workstation, and the compound was added to the plate using the ECHO liquid workstation. A positive control was prepared using Retigabine (RTG) with a maximum concentration of 100 µM, which was subjected to a 3-fold dilution, resulting in a total of 9 doses constituting the plate map required for plating. Prepare the plate using a stimulation buffer containing 5 mM K^+ and 1 mM Tl^+. Note: 1) K2SO4 and Tl2SO4 were prepared in a 1× chloride-free buffer. When different voltage-gated potassium channels were involved, the concentrations of Tl^+ and K^+ were needed to be adjusted. The concentration of Tl^+ was approximately 0.5 mM to 5 mM, and the concentration of K^+ was approximately 5 mM to 30 mM. 2) Each 1 mM solution of K2SO4 and Tl2SO4 contained 2 mM K^+ and Tl^+. The final concentration should be calculated based on the ion concentrations. 3) TlCl was easily precipitated and a chloride-free buffer was required. • (3) Day 2, assay testing: When the cells reached the confluence degree, the cell analysis plate was taken out from the incubator. The assay buffer was prepared and the Tl^+ dye (Molecular Devices # R8222) was diluted. The culture medium was discarded using the liquid workstation Bravo and 25 µL of Tl^+ dye was added to each well. The plate was incubated for 1 hour, and then the cell analysis plate, composite plate, and FLIPR tip were placed in FLIPR^TETRA (Molecular Devices, USA) for FLIPR assay. The tip was set up, and then the baseline was read for 60 seconds. Then, 12.5 µL from the composite plate (3×) was added to the cell analysis plate, and the data were recorded for at least 5 minutes at the same time. • (4) Data processing: The maximum signal was generated with FLIPR software. Excel (2013) and Prism 6.01 were used for data analysis. The data quality control was performed with S/B > 2.00 and Z-factor > 0.50. IC50 or EC50 was defined as the midline between the lowest and the highest plateaus, and it was calculated using a four-parameter logistic model with Prism 6.01.
Purpose of the assay: To determine the in vitro concentration-response relationship of the compounds in a CHO cell line stably expressing hKCNQ2/3 using FLIPR thallium flux assay. […]

Data set [2] has as its system male CD-1 mice. Description: Maximal electroshock-induced epilepsy model, behavioral pharmacodynamics. Type of data set: in vivo. The conditions noted are these: 5 mg/kg orally, one hour before electrical stimulation. The text has this: This study used behavioral tests in male CD-1 mice to investigate the effects of test compounds on acute epileptic seizures behavior induced by maximal electroshock.
Male CD-1 mice (25 to 35g) were used as the experimental animals and fed with standard feed (Beijing Vital River Laboratory Animal Technology Co., Ltd.).
After arriving at the animal facility, the experimental animals needed to acclimatize for at least one week. The mice were observed daily for vital signs, and randomly divided into groups according to their body weights one day before the drug administration. One hour before the electrical stimulation, different dosages of the test compound were orally administered to each group. On the day of the assay, the male CD-1 mice in each group were anesthetized locally at the cornea with 2% lidocaine. Then, silver bipolar electrodes were used to electrically stimulate the cornea of the mice with 18 mA, 60 Hz, a pulse width of 0.6 ms, and a stimulation time of 1 s to induce seizures. Subsequently, the latency of seizures and the duration of limb rigidity in mice after the electrical stimulation were observed, and the protection rate from seizures for each group was statistically analyzed.

Data set [3] is described as follows: Plasma protein binding rate, equilibrium dialysis (human plasma). Type of data set: in vitro ADME. The following applies: dialysis 4 hours at 37 °C, read-out: Unbound PPB%. As to the method: (§1) The protein binding rates of the compounds in the plasma of CD-1 mice, Sprague-Dawley rats, beagle dogs, cynomolgus monkeys, and human were determined using equilibrium dialysis method.
(§2) Commercially available plasma, dual-layer dialysis membrane, and equilibrium dialysis device.
(§3) The dual-layer dialysis membrane was soaked in ultrapure water for about 1 hour, removed and then divided into two parts. It was then soaked in an ethanol:water (20:80, v:v) solution for 20 minutes or placed at 2 to 8 °C, and it was valid for 1 month. Before starting the assay, the dialysis membrane was rinsed twice with ultrapure water and then soaked in ultrapure water for another 20 minutes for later use.
(§4) On the day of assay, the frozen plasma of CD-1 mice, Sprague-Dawley rats, beagle dogs, cynomolgus monkeys, and human was thawed in running cold tap water. After the plasma was completely thawed, the plasma was centrifuged at 3220×g for 5 minutes, and the suspended substances and precipitates in it were removed. The pH of the plasma was determined. The plasma with a pH in the range of 7.4 ± 0.1 was directly used, or the plasma with a pH in the range of 7.4 ± 0.1 after an adjustment with 1% phosphoric acid or 1M sodium hydroxide was used.
(§5) Preparation process of plasma samples: 597 µL of blank plasma from each of the above five species was taken, respectively. 3 µL of a compound or warfarin working solution was added, and the mixture was mixed thoroughly to give a plasma sample with a compound concentration of 2 µM and a warfarin concentration of 2 µM (n=1). The concentration of the organic phase DMSO was 0.5%. The sample was thoroughly mixed before proceeding to the next step.
(§6) Preparation process of T0 samples: 50 µL of a plasma sample containing the compound and warfarin was transferred to a sample receiving plate (n=3), and 50 µL of blank PBS was immediately added. Then, 500 µL of stop solution was added to the T0 sample of the compound and warfarin, and the mixture was stored at 2 to 8 °C, waiting to be processed later together with other dialysis-processed samples.
(§7) Dialysis process of plasma samples: 100 µL of a compound (2 µM) and warfarin (2 µM) plasma sample was added to the donor of each dialysis well (n=3), and 100 µL of blank PBS was added to the corresponding receiver of the dialysis well. The dialysis plate was placed in a 5% CO2 incubator, and incubated at 37 °C with shaking at approximately 100 rpm for 4 hours.
(§8) After the dialysis was completed, 50 µL of dialysis-processed PBS sample and dialysis-processed plasma sample (n=3) were transferred to a new 96-well plate (sample receiving plate). The corresponding volume of the corresponding blank plasma or PBS was added to the sample to make the final volume of each sample well 100 µL, with a plasma to PBS volume ratio of 1:1. All the samples were analyzed by LC-MS/MS after protein precipitation.
(§9) The formulas for calculating the unbound fraction (%Unbound), bound fraction (%Bound) and recovery fraction (%Recovery) of a compound are as follows: %Unbound = 100 ×F / T %Bound = 100 - %Unbound %Recovery = 100 ×(F + T)/ T0 wherein F is the concentration of the compound at the receiver of dialysis; T is the concentration of the compound at the supply end of dialysis; and T0 is the concentration of the compound in the plasma at time zero.

Data set [4] in a line: Plasma protein binding rate, equilibrium dialysis (rat plasma). Format: in vitro ADME, Sprague-Dawley rats. The conditions noted are these: r (Sprague-Dawley rat plasma), dialysis 4 hours at 37 °C, read-out: Unbound PPB%. As to the method: as §1, §2, §3, §4, §5, §6, §7, §8, §9
In general terms: In equilibrium dialysis only unbound substance equilibrates across the membrane.

A short description of data set [5]: Plasma protein binding rate, equilibrium dialysis (mouse plasma). Type of data set: in vitro ADME, CD-1 mice. The conditions noted are these: m (CD-1 mouse plasma), dialysis 4 hours at 37 °C, read-out: Unbound PPB%. As to the method: as §1, §2, §3, §4, §5, §6, §7, §8, §9
Data set [6] can be described thus: Plasma protein binding rate, equilibrium dialysis (dog plasma). The following applies: d (beagle dog plasma), dialysis 4 hours at 37 °C, read-out: Unbound PPB%. Type of data set: in vitro ADME, beagle dogs. As to the method:
as §1, §2, §3, §4, §5, §6, §7, §8, §9

The nature of data set [7]: Plasma protein binding rate, equilibrium dialysis (monkey plasma). The following applies: c (cynomolgus monkey plasma), dialysis 4 hours at 37 °C, read-out: Unbound PPB%. Format: in vitro ADME, cynomolgus monkeys. As for the experimental part: as §1, §2, §3, §4, §5, §6, §7, §8, §9

T1 sequence (O43525 whole entry): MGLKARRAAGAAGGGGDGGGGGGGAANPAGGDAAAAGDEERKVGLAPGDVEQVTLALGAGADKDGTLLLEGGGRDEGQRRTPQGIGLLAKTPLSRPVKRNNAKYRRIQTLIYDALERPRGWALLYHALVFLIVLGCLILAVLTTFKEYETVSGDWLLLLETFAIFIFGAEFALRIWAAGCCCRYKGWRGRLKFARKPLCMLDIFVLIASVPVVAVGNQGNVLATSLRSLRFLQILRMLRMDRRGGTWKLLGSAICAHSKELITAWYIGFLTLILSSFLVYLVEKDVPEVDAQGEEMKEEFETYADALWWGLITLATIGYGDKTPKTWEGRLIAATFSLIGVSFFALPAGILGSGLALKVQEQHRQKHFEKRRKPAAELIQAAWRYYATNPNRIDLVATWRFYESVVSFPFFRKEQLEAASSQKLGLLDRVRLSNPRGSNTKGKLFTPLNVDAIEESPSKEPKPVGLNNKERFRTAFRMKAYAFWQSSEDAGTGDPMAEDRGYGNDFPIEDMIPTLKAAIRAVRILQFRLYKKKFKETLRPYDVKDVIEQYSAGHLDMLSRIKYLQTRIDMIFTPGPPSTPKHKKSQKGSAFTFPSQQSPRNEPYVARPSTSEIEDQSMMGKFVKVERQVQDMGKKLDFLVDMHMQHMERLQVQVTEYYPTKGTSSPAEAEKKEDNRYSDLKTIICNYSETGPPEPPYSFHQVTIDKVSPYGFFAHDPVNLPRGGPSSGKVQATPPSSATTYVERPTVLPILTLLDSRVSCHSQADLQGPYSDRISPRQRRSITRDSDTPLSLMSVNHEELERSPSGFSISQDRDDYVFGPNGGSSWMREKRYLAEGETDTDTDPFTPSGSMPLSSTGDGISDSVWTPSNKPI
T1 sequence (O43526 whole entry): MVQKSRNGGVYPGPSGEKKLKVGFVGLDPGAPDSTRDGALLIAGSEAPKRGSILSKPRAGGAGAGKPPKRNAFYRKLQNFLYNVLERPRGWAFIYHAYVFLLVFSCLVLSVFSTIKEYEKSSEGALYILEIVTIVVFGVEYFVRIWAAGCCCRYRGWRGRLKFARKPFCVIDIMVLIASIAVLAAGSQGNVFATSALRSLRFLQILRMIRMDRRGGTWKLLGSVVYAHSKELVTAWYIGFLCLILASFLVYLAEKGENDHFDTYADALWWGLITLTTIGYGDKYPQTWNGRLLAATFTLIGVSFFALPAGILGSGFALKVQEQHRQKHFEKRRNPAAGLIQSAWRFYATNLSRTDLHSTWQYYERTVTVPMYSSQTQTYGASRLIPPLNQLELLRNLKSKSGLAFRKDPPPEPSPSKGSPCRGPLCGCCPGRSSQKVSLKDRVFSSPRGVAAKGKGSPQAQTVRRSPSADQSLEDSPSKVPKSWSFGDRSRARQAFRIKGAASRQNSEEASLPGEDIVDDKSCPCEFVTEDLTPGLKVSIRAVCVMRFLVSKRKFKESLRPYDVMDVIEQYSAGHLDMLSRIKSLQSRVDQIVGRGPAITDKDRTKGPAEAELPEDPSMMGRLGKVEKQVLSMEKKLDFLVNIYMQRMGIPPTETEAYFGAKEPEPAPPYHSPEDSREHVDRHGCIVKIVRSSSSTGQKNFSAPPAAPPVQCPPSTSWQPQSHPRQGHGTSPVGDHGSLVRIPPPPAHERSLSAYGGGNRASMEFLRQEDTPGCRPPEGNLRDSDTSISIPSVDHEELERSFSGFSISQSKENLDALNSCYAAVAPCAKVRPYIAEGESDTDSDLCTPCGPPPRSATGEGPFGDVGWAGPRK

Take `CC(C)(C)CC(=O)Nc1nc2c(F)c3c(cc2n1C1CCC1)CCC3` [Compound 8]: a half-maximal effect in data set [1] (EC50) was put at 420 nM. Moreover, the “Protection rate from seizures” value in data set [2] is 50%.

In turn, `CC(C)(C)CC(=O)Nc1nc2cc3c(cc2n1C(C)(C)C)CCC3` [Compound 10] registered an EC50 in data set [1] of 120 nM. The “Protection rate from seizures” value in data set [2] is reported as 33.33%.

In data set [1], `CC(C)(C)CC(=O)Nc1nc2cc3c(cc2n1C1(C)CCC1)CCC3` [Compound 9] had an EC50 of 160 nM. Also, the “Protection rate from seizures” value in data set [2] is 50%. In addition, the fraction unbound at 4 h, 2 µM in data set [3] was 0.003; in data set [4] it was 0.002; in data set [5], 0.002; in data set [6] it was 0.004; in data set [7] it was 0.004.

Take `CC(C)(C)CC(=O)Nc1nc2cc3c(cc2n1C1CCC1)CCC3` [Compound 7]: in data set [1], the EC50 stood at 420 nM. In data set [2], the “Protection rate from seizures” value was 66.67%. In addition, the fraction unbound at 4 h, 2 µM in data set [3] came to 0.004; in data set [4] it was 0.003; in data set [5] it was 0.003; in data set [6], 0.006; in data set [7], 0.012.
